According to patent US11477982B2, “2-amino-5-oxyalkyl-pyrimidine derivatives and their use for controlling undesired plant growth” (Bayer CropScience Aktiengesellschaft, priority 2017, dated 2022):

Experiments:
Type in all cases: in vivo
[1] = test system: MATIN: Matricaria inodora; test: Post-emergence herbicidal effect
Outline: (§1)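 Visual rating, made about 3 weeks after treatment against untreated plants, runs from 0% (like controls) to 100% (plants dead). WP or EC formulations were applied post-emergence as aqueous spray at 600 l/ha with 0.5% additive. Plants were at the one-leaf stage, 2 to 3 weeks after sowing in sandy loam.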

[2] = test system: PHBPU: Ipomoea purpurea; test: Post-emergence herbicidal effect; settings: dosage 320 g/ha
Outline: as §1

[3] = test system: POLCO: Polygonum convolvulus; test: Post-emergence herbicidal effect
Outline: as §1

[4] = test system: STEME: Stellaria media; test: Post-emergence herbicidal effect
Outline: as §1

[5] = test system: VIOTR: Viola tricolor; test: Post-emergence herbicidal effect; settings: dosage 80 g/ha
Outline: as §1

[6] = test system: ABUTH: Abutilon theophrasti; test: Pre-emergence herbicidal effect
Outline: (§2)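 Visual damage rating after ~3 weeks in greenhouse, expressed as % activity relative to untreated pots, where 0% equals control and 100% means dead plants. Treatment was pre-emergence: WP or EC formulations applied to covering soil at 600 l/ha water with 0.5% additive.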

[7] = test system: ALOMY: Alopecurus myosuroides; test: Pre-emergence herbicidal effect; settings: pre-emergence
Outline: as §2

[8] = test system: AMARE: Amaranthus retroflexus; test: Pre-emergence herbicidal effect; settings: pre-emergence
Outline: as §2

[9] = test system: AVEFA: Avena fatua; test: Pre-emergence herbicidal effect
Outline: as §2

[10] = test system: CYPES; test: Pre-emergence herbicidal effect
Outline: as §2

[11] = test system: ECHCG: Echinochloa crus-galli; test: Pre-emergence herbicidal effect; settings: pre-emergence
Outline: as §2

[12] = test system: HORMU: Hordeum murinum; test: Pre-emergence herbicidal effect; settings: pre-emergence
Outline: as §2

[13] = test system: LOLRI: Lolium rigidum; test: Pre-emergence herbicidal effect
Outline: as §2

[14] = test system: MATIN: Matricaria inodora; test: Pre-emergence herbicidal effect; settings: pre-emergence; dosage 320 g/ha
Outline: as §2

[15] = test system: PHBPU: Ipomoea purpurea; test: Pre-emergence herbicidal effect
Outline: as §2

[16] = test system: POLCO: Polygonum convolvulus; test: Pre-emergence herbicidal effect
Outline: as §2

[17] = test system: SETVI: Setaria viridis; test: Pre-emergence herbicidal effect; settings: pre-emergence
Outline: as §2

[18] = test system: STEME: Stellaria media; test: Pre-emergence herbicidal effect; settings: pre-emergence; dosage 320 g/ha
Outline: as §2

[19] = test system: VERPE: Veronica persica; test: Pre-emergence herbicidal effect; settings: dosage 320 g/ha
Outline: as §2

[20] = test system: VIOTR: Viola tricolor; test: Pre-emergence herbicidal effect; settings: dosage 320 g/ha
Outline: as §2

[21] = test system: ABUTH: Abutilon theophrasti; test: Post-emergence herbicidal effect
Outline: as §1

[22] = test system: ALOMY: Alopecurus myosuroides; test: Post-emergence herbicidal effect
Outline: as §1

[23] = test system: AMARE: Amaranthus retroflexus; test: Post-emergence herbicidal effect; settings: dosage 320 g/ha
Outline: as §1

[24] = test system: AVEFA: Avena fatua; test: Post-emergence herbicidal effect
Outline: as §1

[25] = test system: ECHCG: Echinochloa crus-galli; test: Post-emergence herbicidal effect
Outline: as §1

[26] = test system: LOLRI: Lolium rigidum; test: Post-emergence herbicidal effect
Outline: as §1

[27] = test system: SETVI: Setaria viridis; test: Post-emergence herbicidal effect; settings: dosage 320 g/ha
Outline: as §1

Cc1ccc2c(c1)[C@H](Nc1ncc(C(C)(C)O)c(N)n1)[C@@H](C)C2 [drawing 13, reference compound]
50%: Herbicidal action against PHBPU [2]
0%: Herbicidal action against MATIN ([1]; dosage 80 g/ha) | Herbicidal action against POLCO ([3]; dosage 320 g/ha) | Herbicidal action against STEME ([4]; dosage 80 g/ha) | Herbicidal action against STEME ([4]; dosage 320 g/ha)
60%: Herbicidal action against VIOTR [5]

Cc1ccc2c(c1)[C@H](Nc1ncc(C(C)(C)O)cn1)[C@@H](C)C2 [Example 1.4]
30%: Herbicidal action against ECHCG ([25]; dosage 80 g/ha)
80%: Herbicidal action against AVEFA ([9]; dosage 80 g/ha) | Herbicidal action against CYPES ([10]; dosage 80 g/ha) | Herbicidal action against PHBPU ([15]; dosage 80 g/ha) | Herbicidal action against MATIN ([1]; dosage 320 g/ha) | Herbicidal action against SETVI [27]
60%: Herbicidal action against ABUTH ([21]; dosage 80 g/ha) | Herbicidal action against LOLRI ([26]; dosage 80 g/ha) | Herbicidal action against STEME ([4]; dosage 80 g/ha)
90%: Herbicidal action against ALOMY ([7]; dosage 80 g/ha) | Herbicidal action against HORMU ([12]; dosage 80 g/ha) | Herbicidal action against ABUTH ([21]; dosage 320 g/ha) | Herbicidal action against ECHCG ([25]; dosage 320 g/ha) | Herbicidal action against LOLRI ([26]; dosage 320 g/ha) | Herbicidal action against POLCO ([3]; dosage 320 g/ha) | Herbicidal action against STEME ([4]; dosage 320 g/ha) | Herbicidal action against VIOTR [5]
40%: Herbicidal action against MATIN ([1]; dosage 80 g/ha)
70%: Herbicidal action against ALOMY ([22]; dosage 320 g/ha) | Herbicidal action against POLCO ([3]; dosage 80 g/ha)
100%: Herbicidal action against ABUTH ([6]; dosage 80 g/ha) | Herbicidal action against ABUTH ([6]; dosage 320 g/ha) | Herbicidal action against ALOMY ([7]; dosage 320 g/ha) | Herbicidal action against AMARE ([8]; dosage 80 g/ha) | Herbicidal action against AMARE ([8]; dosage 320 g/ha) | Herbicidal action against AVEFA ([9]; dosage 320 g/ha) | Herbicidal action against CYPES ([10]; dosage 320 g/ha) | Herbicidal action against ECHCG ([11]; dosage 80 g/ha) | Herbicidal action against ECHCG ([11]; dosage 320 g/ha) | Herbicidal action against HORMU ([12]; dosage 320 g/ha) | Herbicidal action against LOLRI ([13]; dosage 80 g/ha) | Herbicidal action against LOLRI ([13]; dosage 320 g/ha) | Herbicidal action against MATIN [14] | Herbicidal action against PHBPU ([15]; dosage 320 g/ha) | Herbicidal action against POLCO ([16]; dosage 80 g/ha) | Herbicidal action against POLCO ([16]; dosage 320 g/ha) | Herbicidal action against SETVI ([17]; dosage 80 g/ha) | Herbicidal action against SETVI ([17]; dosage 320 g/ha) | Herbicidal action against STEME [18] | Herbicidal action against VERPE [19] | Herbicidal action against VIOTR [20] | Herbicidal action against AMARE [23] | Herbicidal action against PHBPU [2]
50%: Herbicidal action against AVEFA ([24]; dosage 320 g/ha)
20%: Herbicidal action against ALOMY ([22]; dosage 80 g/ha) | Herbicidal action against AVEFA ([24]; dosage 80 g/ha)

Cc1ccc2c(c1)[C@H](Nc1ncc(C(C)(C)O)c(N)n1)[C@@H](C)C2 [drawing 3, reference compound]
60%: Herbicidal action against CYPES ([10]; dosage 80 g/ha)
70%: Herbicidal action against CYPES ([10]; dosage 320 g/ha)
